# Measurements from patent US20210002232A1, “HETEROCYCLIC COMPOUNDS AS FUNGICIDES” (PI INDUSTRIES LTD., priority 2018, published 2021).
# What was measured:
# Pyricularia oryzae = assay: microbe, parasite or virus in culture; type: cell-based; conditions: 168 h, read-out: control
# Phakopsora pachyrhizi = Phakopsora pachyrhizi test in soybean, preventive spray in greenhouse; type: in vivo; conditions: preventive spray on soybean plants, inoculated one day after treatment, compared to the untreated check, read-out: control (efficacy from disease severity rating)
# Alternaria solani = Alternaria solani (early blight of tomato/potato) mycelial radial growth on Potato Dextrose Agar; conditions: 168 h, read-out: control
# Experimental: Compounds were dissolved in 0.3% DMSO & then added to Potato Dextrose Agar medium just prior to dispensing it into Petri dishes. 5 ml medium with compound in the desired concentration was dispensed into 60 mm sterile petri-plates. After solidification each plate was seeded with 5 mm size mycelial disc taken form periphery of actively growing virulent culture plate. Plates were incubated in growth chambers at 25° C. temperature and 60% relative humidity for seven days and radial growth was measured.
# Corynespora cassiicola = Corynespora cassiicola (leaf spot of tomato) mycelial radial growth on Potato Dextrose Agar; type: cell-based; conditions: 300 ppm; radial growth after seven days, 25° C., 70% relative humidity; compared to the untreated check
SMILES,inhibition of growth at 300 ppm (Pyricularia oryzae) [%],pest or weed control at 500 ppm (Phakopsora pachyrhizi) [%],inhibition of growth at 300 ppm (Alternaria solani) [%],control (Corynespora cassiicola)
"CS(=O)(=NC(=O)c1ccc(C2=NOC(C(F)(F)F)N2)cc1)c1ccc(Cl)cc1 (stereo not shown) [Compound 1, N-((4-chlorophenyl)(methyl)(oxo)-λ^6-sulfaneylidene)-4-(5-(trifluoromethyl)-4,5-dihydro-1,2,4-oxadiazol-3-yl)benzamide]",> 70,> 90,,
"COc1ccc(S(C)(=O)=Nc2ccc(C3=NOC(C(F)(F)F)N3)cc2)cc1 (stereo not shown) [Compound 16, (4-methoxyphenyl)(methyl)((4-(5-(trifluoromethyl)-4,5-dihydro-1,2,4-oxadiazol-3-yl)phenyl)imino)-λ^6-sulfanone]",> 70,,> 70,
"CN(CCOc1ccccc1)C(=O)c1ccc(-c2noc(C(F)F)n2)cc1 [Compound 17, 4-(5-(difluoromethyl)-1,2,4-oxadiazol-3-yl)-N-methyl-N-(2-phenoxyethyl)benzamide]",> 70,,,
"CS(=O)(=Nc1ccc(C2=NOC(C(F)(F)F)N2)cc1)c1ccccn1 (stereo not shown) [Compound 24, Methyl(pyridin-2-yl)((4-(5-(trifluoromethyl)-4,5-dihydro-1,2,4-oxadiazol-3-yl)phenyl)imino)-λ^6-sulfanone]",> 70,> 90,> 70,
"COc1ccc(S(C)(=O)=NC(=O)c2ccc(C3=NOC(C(F)(F)F)N3)cc2)cc1 (stereo not shown) [Compound 25, N-((4-methoxyphenyl)(methyl)(oxo)-λ^6-sulfaneylidene)-4-(5-(trifluoromethyl)-4,5-dihydro-1,2,4-oxadiazol-3-yl)benzamide]",,> 90,> 70,
"CS(=O)(=NCc1ccc(C2=NOC(C(F)F)N2)cc1)c1ccccc1 (stereo not shown) [Compound 27, ((4-(5-(difluoromethyl)-4,5-dihydro-1,2,4-oxadiazol-3-yl)benzyl)imino)(methyl)(phenyl)-λ^6-sulfanone]",> 70,,,
"Cc1ccc(S(C)(=O)=NCc2ccc(C3=NOC(C(F)(F)F)N3)cc2)cc1 (stereo not shown) [Compound 30, methyl(p-tolyl)((4-(5-(trifluoromethyl)-4,5-dihydro-1,2,4-oxadiazol-3-yl)benzyl)imino)-λ^6-sulfanone]",> 70,> 90,> 70,
"CS(=O)(=NCc1ccc(-c2nc(C(F)F)n[nH]2)cc1)c1ccccc1 (stereo not shown) [Compound 42, ((4-(3-(difluoromethyl)-1h-1,2,4-triazol-5-yl)benzyl)imino)(methyl)(phenyl)-λ^6-sulfanone]",> 70,,,
"O=C(O)c1ccc(-c2cc(C(F)(F)F)on2)cc1 [Compound 56, 4-(5-(trifluoromethyl)isoxazol-3-yl)benzoic acid]",,> 90,> 70,
"CS(=O)(=NC(=O)c1ccc(-c2cc(C(F)(F)F)on2)cc1)c1ccc(C(F)(F)F)cc1 (stereo not shown) [Compound 59, N-(methyl(oxo)(4-(trifluoromethyl)phenyl)-λ^6-sulfaneylidene)-4-(5-(trifluoromethyl)isoxazol-3-yl)benzamide]",,,,more than 70%
"CN(CCOc1ccccc1)C(=O)c1ccc(-c2coc(C(F)(F)F)n2)cc1 [Compound 67, N-methyl-N-(2-phenoxyethyl)-4-(2-(trifluoromethyl)oxazol-4-yl)benzamide]",> 70,> 90,> 70,
"COc1ccc(S(C)(=O)=NC(=O)c2ccc(-c3coc(C(F)(F)F)n3)cc2)cc1 (stereo not shown) [Compound 78, N-((4-methoxyphenyl)(methyl)(oxo)-λ^6-sulfaneylidene)-4-(2-(trifluoromethyl)oxazol-4-yl)benzamide]",,,> 70,
"O=C(Nc1ccccc1)c1ccc(-c2coc(C(F)(F)F)n2)cc1 [Compound 81, N-phenyl-4-(2-(trifluoromethyl)oxazol-4-yl)benzamide]",,,> 70,
"CN(C(=O)c1ccc(-c2coc(C(F)(F)F)n2)cc1)c1ccccc1 [Compound 82, N-methyl-N-phenyl-4-(2-(trifluoromethyl)oxazol-4-yl)benzamide]",> 70,> 90,> 70,
"CS(=O)(=NC(=O)c1ccc(-c2coc(C(F)(F)F)n2)cc1)c1ccccc1F (stereo not shown) [Compound 84, N-((2-fluorophenyl)(methyl)(oxo)-λ^6-sulfaneylidene)-4-(2-(trifluoromethyl)oxazol-4-yl)benzamide]",> 70,,> 70,
